Measured values taken from ChEMBL document CHEMBL1126278, “New neplanocin analogues. 1. Synthesis of 6'-modified neplanocin A derivatives as broad-spectrum antiviral agents” (J Med Chem, 1992).
Converted amounts (≈) assume the structure as drawn.

Legend:
HEL [1] = test: Inhibitory effect on replication of DNA virus CMV (AD-169) on HEL cell line.; type: functional, cell-based; conditions: Homo sapiens
HEL [2] = test: Inhibitory effect on replication of DNA virus CMV (Davis) on HEL cell line.; type: functional, cell-based; conditions: Homo sapiens
HEL [3] = test: Inhibitory effect on replication of DNA virus TK-VZV (07-1) on HEL cell line.; type: functional, cell-based; conditions: Homo sapiens
HEL [4] = test: Inhibitory effect on replication of DNA virus TK-VZV (YSR) on HEL cell line.; type: functional, cell-based; conditions: Homo sapiens
HEL [5] = test: Inhibitory effect on replication of DNA virus VZV (Oka) on HEL cell line.; type: functional, cell-based; conditions: Homo sapiens
HEL [6] = test: Inhibitory effect on replication of DNA virus VZV (YS) on HEL cell line.; type: functional, cell-based; conditions: Homo sapiens
HeLa [7] = test: Inhibitory effect on replication of RNA virus coxsB-4 in HeLa cell line.; type: functional, cell-based; conditions: Homo sapiens
HeLa [8] = test: Inhibitory effect on replication of RNA virus RSV in HeLa cell line; type: functional, cell-based; conditions: Homo sapiens
HeLa [9] = test: Inhibitory effect on replication of RNA virus VSV in HeLa cell line.; type: functional, cell-based; conditions: Homo sapiens
HeLa [10] = test: Inhibitory effect on replication of RNA virus cell morphology in HeLa cell line.; type: functional, cell-based; conditions: Homo sapiens
MDCK [11] = test: Inhibitory effect on replication of RNA virus cell morphology in MDCK cell line.; type: functional, cell-based; conditions: Canis lupus familiaris
MT4 [12] = test: Inhibitory effect on replication of RNA virus HIV-1 in MT-4 cell line.; type: functional, cell-based; conditions: Homo sapiens
MT4 [13] = test: Inhibitory effect on replication of RNA virus HIV-2 in MT-4 cell line.; type: functional, cell-based; conditions: Homo sapiens
MT4 [14] = test: Inhibitory effect on replication of RNA virus cell growth in MT-4 cell line.; type: functional, cell-based; conditions: Homo sapiens
PRK [15] = test: Inhibitory effect on replication of DNA virus Cell morphology on PRK cell line; type: functional, cell-based; conditions: Oryctolagus cuniculus
PRK [16] = test: Inhibitory effect on replication of DNA virus VV on PRK cell line.; type: functional, cell-based; conditions: Oryctolagus cuniculus
[17] = Inhibitory effect on replication of DNA virus HSV-1 (KOS) in PRK cell line.; type: functional, cell-based; conditions: Oryctolagus cuniculus
[18] = Inhibitory effect on replication of DNA virus HSV-2 (G) in PRK cell line.; type: functional, cell-based; conditions: Oryctolagus cuniculus
PRK [19] = test: Inhibitory effect on replication of RNA virus VSV in PRK cell line.; type: functional, cell-based; conditions: Oryctolagus cuniculus
PRK [20] = test: Inhibitory effect on replication of RNA virus cell morphology in PRK cell line.; type: functional, cell-based; conditions: Oryctolagus cuniculus
Vero [21] = test: Inhibitory effect on replication of RNA virus coxsB-4 in Vero cell line; type: functional, cell-based; conditions: Chlorocebus sabaeus
Vero [22] = test: Inhibitory effect on replication of RNA virus measles on Vero cell line.; type: functional, cell-based; conditions: Chlorocebus sabaeus
Vero [23] = test: Inhibitory effect on replication of RNA virus reo-1 in Vero cell line.; type: functional, cell-based; conditions: Chlorocebus sabaeus
Vero [24] = test: Inhibitory effect on replication of RNA virus JV in Vero cell line.; type: functional, cell-based; conditions: Chlorocebus sabaeus
Vero [25] = test: Inhibitory effect on replication of RNA virus SFV in Vero cell line; type: functional, cell-based; conditions: Chlorocebus sabaeus
Vero [26] = test: Inhibitory effect on replication of RNA virus SV in Vero cell line.; type: functional, cell-based; conditions: Chlorocebus sabaeus
Vero [27] = test: Inhibitory effect on replication of RNA virus TV in Vero cell line.; type: functional, cell-based; conditions: Chlorocebus sabaeus
Vero [28] = test: Inhibitory effect on replication of RNA virus RNA synthesis in Vero cell line.; type: functional, cell-based; conditions: Chlorocebus sabaeus
Vero [29] = test: Inhibitory effect on replication of RNA virus cell morphology in Vero cell line.; type: functional, cell-based; conditions: Chlorocebus sabaeus
Vero [30] = test: Inhibitory effect on replication of RNA virus protein synthesis in Vero cell line.; type: functional, cell-based; conditions: Chlorocebus sabaeus
Vero [31] = test: Inhibitory effect on replication of RNA virus PV-3 in Vero cell line.; type: functional, cell-based; conditions: Chlorocebus sabaeus
HeLa [32] = test: cells; conditions: Homo sapiens
MDCK [33] = test: cells; conditions: Canis lupus familiaris
MDCK [34] = test: cells; conditions: Canis lupus familiaris; remark: listed apart in the source
ESM [35] = test: Inhibitory effect on replication of DNA virus Cell morphology on ESM cell line; type: functional, cell-based
ESM [36] = test: Inhibitory effect on replication of DNA virus HSV-1 (KOS) in ESM cell line; type: functional, cell-based
ESM [37] = test: Inhibitory effect on replication of DNA virus HSV-2 (G) in ESM cell line; type: functional, cell-based
ESM [38] = test: Inhibitory effect on replication of DNA virus TK-HSV-1 (B2006) on ESM cell line.; type: functional, cell-based
ESM [39] = test: Inhibitory effect on replication of DNA virus TK-HSV-1 (VMW 1837) on ESM cell line.; type: functional, cell-based
ESM [40] = test: Inhibitory effect on replication of DNA virus VV on ESM cell line.; type: functional, cell-based
ESM [41] = test: Inhibitory effect on replication of RNA virus cell morphology in ESM cell line.; type: functional, cell-based
HEL [42] = test: Inhibitory effect on replication of DNA virus Cell growth on HEL cell line.; type: functional, cell-based; conditions: Homo sapiens

SMILES: Nc1ncnc2c1ncn2[C@@H]1C=C(CF)[C@@H](O)[C@H]1O
- IC50 (HEL [1]): 2.5 µg/mL (≈ 9.43 µM)
- IC50 (HEL [2]): 2.5 µg/mL (≈ 9.43 µM)
- IC50 (HEL [3]): 20 µg/mL (≈ 75.4 µM)
- IC50 (HEL [4]): 20 µg/mL (≈ 75.4 µM)
- IC50 (HEL [5]): 70 µg/mL (≈ 264 µM)
- IC50 (HEL [6]): 150 µg/mL (≈ 566 µM)
- IC50 (HeLa [7]): > 200 µg/mL
- IC50 (HeLa [8]): 10 µg/mL (≈ 37.7 µM)
- IC50 (HeLa [9]): 2 µg/mL (≈ 7.54 µM)
- IC50 (HeLa [10]): > 200 µg/mL
- IC50 (MDCK [11]): > 100 µg/mL
- IC50 (MT4 [12]): > 1.5 µg/mL
- IC50 (MT4 [13]): > 1.5 µg/mL
- IC50 (MT4 [14]): 3 µg/mL (≈ 11.3 µM)
- IC50 (PRK [15]): > 400 µg/mL
- IC50 (PRK [16]): 2 µg/mL (≈ 7.54 µM)
- IC50 [17]: > 400 µg/mL
- IC50 [18]: > 400 µg/mL
- IC50 (PRK [19]): 0.2 µg/mL (≈ 0.754 µM)
- IC50 (PRK [20]): > 400 µg/mL
- IC50 (Vero [21]): > 200 µg/mL
- IC50 (Vero [22]): 10 µg/mL (≈ 37.7 µM)
- IC50 (Vero [23]): 2 µg/mL (≈ 7.54 µM)
- IC50 (Vero [24]): 0.4 µg/mL (≈ 1.51 µM)
- IC50 (Vero [25]): 200 µg/mL (≈ 754 µM)
- IC50 (Vero [26]): 7 µg/mL (≈ 26.4 µM)
- IC50 (Vero [27]): 0.4 µg/mL (≈ 1.51 µM)
- IC50 (Vero [28]): 5 µg/mL (≈ 18.9 µM)
- IC50 (Vero [29]): 40 µg/mL (≈ 151 µM)
- IC50 (Vero [30]): 65 µg/mL (≈ 245 µM)
- IC50 (Vero [31]): 7 µg/mL (≈ 26.4 µM)
- IC50 (HeLa [32]): > 200 µg/mL
- IC50 (MDCK [33]): > 100 µg/mL
- IC50 (MDCK [34]): > 100 µg/mL

SMILES: C[C@H](O)C1=C[C@@H](n2cnc3c(N)ncnc32)[C@H](O)[C@@H]1O
- IC50 (ESM [35]): > 400 µg/mL
- IC50 (ESM [36]): > 400 µg/mL
- IC50 (ESM [37]): > 400 µg/mL
- IC50 (ESM [38]): > 400 µg/mL
- IC50 (ESM [39]): > 400 µg/mL
- IC50 (ESM [40]): 40 µg/mL (≈ 144 µM)
- IC50 (ESM [41]): > 400 µg/mL
- IC50 (HEL [1]): 15 µg/mL (≈ 54.1 µM)
- IC50 (HEL [2]): 9 µg/mL (≈ 32.5 µM)
- IC50 (HEL [42]): 132 µg/mL (≈ 476 µM)
- IC50 (HEL [3]): 76 µg/mL (≈ 274 µM)
- IC50 (HEL [4]): 39 µg/mL (≈ 141 µM)
- IC50 (HEL [5]): 100 µg/mL (≈ 361 µM)
- IC50 (HeLa [7]): > 400 µg/mL
- IC50 (HeLa [8]): > 100 µg/mL
- IC50 (HeLa [10]): > 400 µg/mL
- IC50 (MDCK [11]): > 100 µg/mL
- IC50 (MT4 [12]): > 100 µg/mL
- IC50 (MT4 [13]): > 100 µg/mL
- IC50 (MT4 [14]): > 100 µg/mL
- IC50 (PRK [15]): > 400 µg/mL
- IC50 (PRK [16]): 70 µg/mL (≈ 252 µM)
- IC50 [17]: > 400 µg/mL
- IC50 [18]: > 200 µg/mL
- IC50 (PRK [19]): 70 µg/mL (≈ 252 µM)
- IC50 (PRK [20]): > 400 µg/mL
- IC50 (Vero [21]): > 200 µg/mL
- IC50 (Vero [22]): > 100 µg/mL
- IC50 (Vero [23]): 40 µg/mL (≈ 144 µM)
- IC50 (Vero [24]): 45 µg/mL (≈ 162 µM)
- IC50 (Vero [25]): > 400 µg/mL
- IC50 (Vero [26]): 150 µg/mL (≈ 541 µM)
- IC50 (Vero [27]): 55 µg/mL (≈ 198 µM)
- IC50 (Vero [28]): 36 µg/mL (≈ 130 µM)
- IC50 (Vero [29]): > 400 µg/mL
- IC50 (Vero [30]): > 190 µg/mL
- IC50 (Vero [31]): 100 µg/mL (≈ 361 µM)
- IC50 (HeLa [32]): > 400 µg/mL
- IC50 (MDCK [33]): > 100 µg/mL
- IC50 (MDCK [34]): > 100 µg/mL
